Laboratory results reported in article PMC3138742 (PLoS ONE, 2011).

Tests used:
[1] = tested on: FVB-2/N^neu transgenic mouse model; experiment: Spontaneous breast cancer in FVB-2/N^neu transgenic mouse, tumor growth; assay type: in vivo; settings: FVB-2/N^neu mice
From the text: Thirty eight- to forty four-week-old female FVB/N^neu mice were obtained from Shanghai Laboratory Animal Center. The animals were housed under specific pathogen-free conditions.

NCI-H1975 cells = experiment: Cell proliferation SRB assay; assay type: cell-based, human; settings: NCI-H1975 cells (EGFR T790M/L858R)
Description: Cell viability was determined using sulforhodamine B assay. IC50 values were determined based on the results of three independent experiments. […] Whole-cell lysates were assayed for total EGFR and phosphorylation of EGFR by immunoblotting. A representative anti-GAPDH immunoblot is shown as a loading control. […] Cell viability was determined using sulforhodamine B assay.
Cell proliferation was evaluated using the SRB (Sulforhodamine B) assay as previously described. Briefly, cells were seeded into 96-well plates and grown for 24 h. […] The medium remained unchanged until the completion of the experiment. The cells were then fixed with 10% precooled trichloroacetic acid (TCA) for 1 h at 4°C and stained for 15 min at room temperature with 100 μL of 4 mg/mL SRB solution (Sigma) in 1% acetic acid. The SRB was then removed, and the cells were quickly rinsed five times with 1% acetic acid. After cells were air-dried, protein-bound dye was dissolved in 150 μL of 10 mmol/L Tris base for 5 min and measured at 515 nm using a multiwell spectrophotometer (VERSAmax, Molecular Devices). […] The IC50 value was obtained by the Logit method and was determined from the results of at least 3 independent tests.

EphA2 = EphA2 (Homo sapiens, UniProt P29317); settings: EphA2, cell-free
EphA2, sequence (P29317 613-875 limits assumed): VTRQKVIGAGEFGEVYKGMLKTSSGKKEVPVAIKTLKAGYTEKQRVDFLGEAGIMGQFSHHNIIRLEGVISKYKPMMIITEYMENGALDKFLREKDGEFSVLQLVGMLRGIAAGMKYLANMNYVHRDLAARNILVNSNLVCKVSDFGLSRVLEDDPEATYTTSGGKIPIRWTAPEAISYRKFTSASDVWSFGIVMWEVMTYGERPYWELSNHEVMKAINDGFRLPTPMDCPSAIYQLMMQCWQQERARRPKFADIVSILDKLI
Description: (§1) The tyrosine kinase activities were determined using enzyme-linked immunosorbant assay (ELISA). The serine/threonine kinase activities were detected by Caliper Mobility Shift Assay on EZ Reader (Caliper Life Sciences, MA) according to the instruction.
(§2) The kinase domain of EGFR, ErbB-2, IGF1R, VEGFR2, FGFR1, PDGFRα, c-Src, c-Met, RON, c-Kit, EphA2 and EphB2 were expressed using the Bac-to-Bac^TM baculovirus expression system (Invitrogen, Carlsbad, CA, USA) and purified on Ni-NTA columns (QIAGEN Inc., Valencia, CA, USA). VEGFR1, PDGFRβ and c-Abl were purchased from Upstate Biotechnology Inc. (Charlottesville, Virginia, USA). […] EGF was purchased from R&D, Minneapolis, […]. Poly(Glu-Tyr)(4:1), the substrate of tyrosine kinase, was from Sigma-Aldrich Corp. St. Louis, MO, USA.
(§3) The tyrosine kinase activities were determined in 96-well ELISA plates (Corning, NY, USA) precoated with 20 μg/mL Poly (Glu,Tyr)4:1. First, 80 μL of 5 μM ATP solution diluted in kinase reaction buffer (50 mM HEPES pH 7.4, 20 mM MgCl2, 0.1 mM MnCl2, 0.2 mM Na3VO4, 1 mM DTT) was added to each well. […] Subsequently, the kinase reaction was initiated by the addition of purified tyrosine kinase proteins diluted in 10 μL of kinase reaction buffer solution. Experiments at each concentration were performed in duplicate. After incubation for 60 min at 37 °C, the plate was washed three times with phosphate buffered saline (PBS) containing 0.1% Tween 20 (T-PBS). Next, 100 μL anti-phosphotyrosine antibody (PY99, 1:500 dilution) diluted in T-PBS containing 5 mg/mL BSA was added. After 30 min incubation at 37 °C, the plate was washed three times as before. Horseradish peroxidase-conjugated goat anti-mouse IgG (100 μL) diluted 1:2000 in T-PBS containing 5 mg/ml BSA was added. The plate was reincubated at 37 °C for 30 min, and then washed with PBS.

RON = RON (Homo sapiens, UniProt Q04912); settings: cell-free
RON, sequence (Q04912 1082-1345 limits assumed): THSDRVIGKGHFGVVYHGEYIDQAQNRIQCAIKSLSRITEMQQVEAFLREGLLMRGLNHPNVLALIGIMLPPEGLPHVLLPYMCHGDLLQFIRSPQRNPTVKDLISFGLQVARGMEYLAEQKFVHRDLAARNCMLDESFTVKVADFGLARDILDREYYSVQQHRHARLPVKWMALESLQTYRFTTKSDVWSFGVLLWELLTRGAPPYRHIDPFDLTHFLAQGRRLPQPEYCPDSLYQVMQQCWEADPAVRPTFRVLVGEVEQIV
Description: as §1, §2, §3

PDGFRα = PDGFRα (Homo sapiens, UniProt P16234); settings: cell-free
PDGFRα, sequence (P16234 593-954 limits assumed): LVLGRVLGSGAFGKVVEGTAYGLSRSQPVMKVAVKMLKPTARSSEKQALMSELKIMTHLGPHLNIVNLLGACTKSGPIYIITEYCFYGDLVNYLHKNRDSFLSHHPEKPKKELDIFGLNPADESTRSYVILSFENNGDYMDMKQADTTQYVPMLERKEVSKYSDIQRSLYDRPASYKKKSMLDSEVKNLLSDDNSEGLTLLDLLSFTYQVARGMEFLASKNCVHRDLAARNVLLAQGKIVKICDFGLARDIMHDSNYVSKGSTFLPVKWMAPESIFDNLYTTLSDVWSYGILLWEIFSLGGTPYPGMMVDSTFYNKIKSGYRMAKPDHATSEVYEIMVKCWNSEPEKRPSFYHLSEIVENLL
Description: as §1, §2, §3

c-Met = c-Met (Homo sapiens, UniProt P08581); settings: cell-free
c-Met, sequence (P08581 1078-1345 limits assumed): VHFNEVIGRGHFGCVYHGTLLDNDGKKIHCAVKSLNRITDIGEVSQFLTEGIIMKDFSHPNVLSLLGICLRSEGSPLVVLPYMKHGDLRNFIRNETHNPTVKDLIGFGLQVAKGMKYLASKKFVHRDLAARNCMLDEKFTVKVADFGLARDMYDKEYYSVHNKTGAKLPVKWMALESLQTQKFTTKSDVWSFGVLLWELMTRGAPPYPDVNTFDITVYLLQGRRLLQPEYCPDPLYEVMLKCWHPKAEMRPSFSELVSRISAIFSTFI
Description: as §1, §2, §3

ErbB2 = ErbB2 (Homo sapiens, UniProt P04626); settings: ErbB2, cell-free; means ± SD
ErbB2, sequence (P04626 720-987 limits assumed): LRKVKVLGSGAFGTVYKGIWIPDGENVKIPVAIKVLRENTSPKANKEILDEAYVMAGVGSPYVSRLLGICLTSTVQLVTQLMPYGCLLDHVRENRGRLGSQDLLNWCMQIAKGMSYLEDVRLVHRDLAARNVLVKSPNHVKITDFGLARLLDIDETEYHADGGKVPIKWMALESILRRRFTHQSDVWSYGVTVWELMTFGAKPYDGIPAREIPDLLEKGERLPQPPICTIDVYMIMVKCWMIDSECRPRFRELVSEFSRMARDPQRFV
Description: as §1, §2, §3

JAK2 = JAK2 (Homo sapiens, UniProt O60674); settings: JAK2, cell-free
JAK2, sequence (O60674 whole entry): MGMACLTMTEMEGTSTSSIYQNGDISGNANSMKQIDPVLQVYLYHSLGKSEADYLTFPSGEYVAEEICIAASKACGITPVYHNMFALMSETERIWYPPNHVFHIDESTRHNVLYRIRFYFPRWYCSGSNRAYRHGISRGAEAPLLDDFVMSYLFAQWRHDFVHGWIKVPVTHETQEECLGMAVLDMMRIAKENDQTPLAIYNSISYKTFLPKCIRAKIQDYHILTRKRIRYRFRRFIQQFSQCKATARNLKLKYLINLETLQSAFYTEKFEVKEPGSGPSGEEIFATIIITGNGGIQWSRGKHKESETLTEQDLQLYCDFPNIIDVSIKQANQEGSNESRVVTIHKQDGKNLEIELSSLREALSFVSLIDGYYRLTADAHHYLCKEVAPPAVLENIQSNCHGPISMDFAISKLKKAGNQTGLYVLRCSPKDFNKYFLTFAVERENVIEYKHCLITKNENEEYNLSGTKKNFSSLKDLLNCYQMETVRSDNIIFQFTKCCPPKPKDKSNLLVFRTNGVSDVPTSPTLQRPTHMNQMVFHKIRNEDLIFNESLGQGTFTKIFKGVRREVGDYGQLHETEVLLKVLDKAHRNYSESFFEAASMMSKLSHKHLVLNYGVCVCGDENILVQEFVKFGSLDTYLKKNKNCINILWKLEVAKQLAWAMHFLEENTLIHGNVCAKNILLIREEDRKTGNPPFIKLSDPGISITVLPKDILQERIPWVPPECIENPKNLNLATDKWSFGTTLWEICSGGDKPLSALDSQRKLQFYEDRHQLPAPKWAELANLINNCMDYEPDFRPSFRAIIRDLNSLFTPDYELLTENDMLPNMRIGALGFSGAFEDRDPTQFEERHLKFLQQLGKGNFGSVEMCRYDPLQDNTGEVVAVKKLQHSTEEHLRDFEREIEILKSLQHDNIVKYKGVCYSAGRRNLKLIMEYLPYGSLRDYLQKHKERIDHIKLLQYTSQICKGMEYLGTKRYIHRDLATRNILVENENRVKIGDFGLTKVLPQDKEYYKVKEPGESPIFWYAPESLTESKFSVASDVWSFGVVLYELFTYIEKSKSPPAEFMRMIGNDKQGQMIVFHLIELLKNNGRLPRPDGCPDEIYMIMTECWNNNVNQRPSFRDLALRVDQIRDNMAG
Description: as §1, §2, §3

PDGFRβ = PDGFRβ (Homo sapiens, UniProt P09619); settings: cell-free
PDGFRβ, sequence (P09619 33-1106): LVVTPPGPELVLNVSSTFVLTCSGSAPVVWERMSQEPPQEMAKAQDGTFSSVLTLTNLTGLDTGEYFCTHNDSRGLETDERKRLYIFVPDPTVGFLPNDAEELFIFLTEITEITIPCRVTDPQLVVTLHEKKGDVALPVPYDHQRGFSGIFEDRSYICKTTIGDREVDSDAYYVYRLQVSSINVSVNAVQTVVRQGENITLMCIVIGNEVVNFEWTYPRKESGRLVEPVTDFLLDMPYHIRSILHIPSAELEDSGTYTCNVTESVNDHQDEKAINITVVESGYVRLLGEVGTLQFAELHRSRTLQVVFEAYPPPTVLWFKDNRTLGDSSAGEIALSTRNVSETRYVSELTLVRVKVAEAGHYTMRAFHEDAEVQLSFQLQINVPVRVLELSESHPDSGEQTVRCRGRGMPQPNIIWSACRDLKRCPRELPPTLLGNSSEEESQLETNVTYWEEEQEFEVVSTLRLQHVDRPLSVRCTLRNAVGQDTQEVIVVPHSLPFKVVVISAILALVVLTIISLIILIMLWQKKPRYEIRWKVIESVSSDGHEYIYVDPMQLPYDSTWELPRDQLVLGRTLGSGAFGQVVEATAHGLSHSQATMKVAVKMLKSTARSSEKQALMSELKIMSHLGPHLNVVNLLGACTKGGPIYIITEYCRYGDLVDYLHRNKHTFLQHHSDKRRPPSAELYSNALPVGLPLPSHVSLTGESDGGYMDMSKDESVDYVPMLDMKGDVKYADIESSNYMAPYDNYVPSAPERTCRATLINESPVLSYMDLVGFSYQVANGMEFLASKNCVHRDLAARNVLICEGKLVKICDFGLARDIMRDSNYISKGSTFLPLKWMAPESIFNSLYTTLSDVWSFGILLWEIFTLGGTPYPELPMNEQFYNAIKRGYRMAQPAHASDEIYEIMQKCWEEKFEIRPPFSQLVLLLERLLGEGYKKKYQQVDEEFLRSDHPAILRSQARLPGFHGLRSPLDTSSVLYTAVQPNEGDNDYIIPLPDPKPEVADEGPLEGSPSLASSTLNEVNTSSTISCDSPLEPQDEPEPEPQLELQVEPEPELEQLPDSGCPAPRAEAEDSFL
Description: as §1, §2, §3

FGFR1 = FGFR1 (Homo sapiens, UniProt P11362); settings: FGFR1, cell-free
FGFR1, sequence (P11362 478-767 limits assumed): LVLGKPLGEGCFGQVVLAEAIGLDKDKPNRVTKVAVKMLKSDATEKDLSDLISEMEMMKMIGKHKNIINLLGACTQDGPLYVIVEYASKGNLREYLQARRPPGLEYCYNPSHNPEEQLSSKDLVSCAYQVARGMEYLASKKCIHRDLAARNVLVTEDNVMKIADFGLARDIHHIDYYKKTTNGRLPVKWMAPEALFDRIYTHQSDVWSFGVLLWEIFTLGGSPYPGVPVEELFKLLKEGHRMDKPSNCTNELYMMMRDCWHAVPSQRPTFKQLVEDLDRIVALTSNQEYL
Description: as §1, §2, §3

EGFR = EGFR (Homo sapiens, UniProt P00533); settings: cell-free, means ± SD
EGFR, sequence (P00533 712-979 limits assumed): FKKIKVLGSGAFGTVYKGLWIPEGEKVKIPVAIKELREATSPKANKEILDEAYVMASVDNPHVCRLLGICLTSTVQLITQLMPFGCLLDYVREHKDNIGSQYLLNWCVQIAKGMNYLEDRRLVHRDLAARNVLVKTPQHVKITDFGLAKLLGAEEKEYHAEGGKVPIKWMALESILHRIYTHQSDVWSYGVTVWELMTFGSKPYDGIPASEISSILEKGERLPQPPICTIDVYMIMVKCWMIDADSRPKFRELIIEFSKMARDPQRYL
Description: as §1, §2, §3

c-Kit = c-Kit (Homo sapiens, UniProt P10721); settings: cell-free
c-Kit, sequence (P10721 589-937 limits assumed): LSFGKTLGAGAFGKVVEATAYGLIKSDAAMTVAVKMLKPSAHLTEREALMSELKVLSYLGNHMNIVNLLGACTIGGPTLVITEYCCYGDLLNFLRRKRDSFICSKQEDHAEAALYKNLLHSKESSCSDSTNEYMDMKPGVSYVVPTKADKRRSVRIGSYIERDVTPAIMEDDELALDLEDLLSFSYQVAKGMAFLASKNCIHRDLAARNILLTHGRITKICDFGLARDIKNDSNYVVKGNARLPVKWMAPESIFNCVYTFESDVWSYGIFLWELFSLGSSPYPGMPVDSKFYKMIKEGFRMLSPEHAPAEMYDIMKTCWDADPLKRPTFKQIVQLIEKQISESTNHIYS
Description: as §1, §2, §3

Flt-1 = Flt-1 (Homo sapiens, UniProt P17948); settings: Flt-1, cell-free
Description: as §1, §2, §3

EphB2 = EphB2 (Homo sapiens, UniProt P29323); settings: EphB2, cell-free
EphB2, sequence (P29323 621-884 limits assumed): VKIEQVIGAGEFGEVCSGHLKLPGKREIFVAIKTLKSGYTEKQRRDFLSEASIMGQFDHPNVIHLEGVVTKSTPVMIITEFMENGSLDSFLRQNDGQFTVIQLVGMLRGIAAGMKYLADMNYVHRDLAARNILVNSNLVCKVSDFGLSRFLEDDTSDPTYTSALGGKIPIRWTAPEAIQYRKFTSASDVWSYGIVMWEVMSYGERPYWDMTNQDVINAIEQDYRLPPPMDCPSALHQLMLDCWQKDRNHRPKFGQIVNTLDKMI
Description: as §1, §2, §3

SK-OV-3 cells = experiment: Anchorage-independent growth on soft agar; assay type: cell-based, human; settings: two weeks
Description: The culture was maintained at 37°C in a 5% CO2 atmosphere for two weeks. The average colony number was calculated and colonies were photographed. Columns, mean of triplicate samples; bars, SE. Significant differences were evaluated using the Student's test (*P<0.05; ** P<0.01). (TIF) Click here for additional data file. Anchorage-independent cell transformation assay. Cell transformation was detected in SK-OV-3 and A549 cells, respectively. […] The culture were maintained in a 37°C, 5% CO2 incubator for 1-2 weeks, and the cell colonies were scored using a microscope and the Image-Pro PLUS computer software program (Media Cybernetics, Silver Spring, MD). Data are shown as means ± SD of values from triplicate experiments and the asterisk (*) indicates a significant (*P<0.05, ** P<0.01) decrease in colony number compared to untreated control.

[2] = Pharmacokinetics after single oral dose; settings: dog, in vivo; dogs, single oral dose 90 mg/kg; unpublished data

C=CC(=O)Nc1ccc2ncnc(Nc3ccc(OCc4cccc(F)c4)c(Cl)c3)c2c1 [AST1306]
tumor growth ([1]; oral twice daily for 3 wk): dramatic suppression of tumor growth | tumors after treatment for 11 d ([1]; oral twice daily, 11 d): tumors almost completely disappeared | inhibition of cell growth (NCI-H1975 cells): inhibited the growth | IC50 (EphA2): > 10 µM | IC50 (RON): > 10 µM | IC50 (PDGFRα): > 10 µM | IC50 (c-Met): > 10 µM | IC50 (ErbB2): 0.003 ± 0.0015 µM | IC50 (JAK2): > 10 µM | IC50 (PDGFRβ): > 10 µM | IC50 (FGFR1): > 10 µM | IC50 (EGFR): 0.0005 ± 0.0002 µM | IC50 (c-Kit): > 10 µM | IC50 (Flt-1): > 10 µM | IC50 (EphB2): > 10 µM | anchorage-independent growth on soft agar (SK-OV-3 cells): dramatically inhibit the growth | half-life [2]: < 2.3 h
